The record followed here is article PMC6090556 (Neuron, 2018).

Read-outs that look alike come from different tables or passages of the source. Marks after values point to notes of the source that are not given here.

In assay [1] the target is GluN1/GluN2AC1/GluN2CC2(NK) (Rattus norvegicus, UniProt P35439+Q00959+Q00961, N612K). Kind of assay: Two-electrode voltage-clamp recordings in Xenopus oocytes. The settings on record: for GluN2AC1/GluN2CC2(NK) fitted response in saturating Zn2+ as percent of control: mean ± SEM; for IC50: read-out: GluN2AC1/GluN2CC2(NK) EC50 (95% CI), IC50 in text, Zn2+ inhibition. Type of assay: cell-based. (Two-electrode voltage clamp holds a large cell at a set potential and records current.)
Chain of GluN1/GluN2AC1/GluN2CC2(NK) (Q00961 20-836 N612K, other chains not shown): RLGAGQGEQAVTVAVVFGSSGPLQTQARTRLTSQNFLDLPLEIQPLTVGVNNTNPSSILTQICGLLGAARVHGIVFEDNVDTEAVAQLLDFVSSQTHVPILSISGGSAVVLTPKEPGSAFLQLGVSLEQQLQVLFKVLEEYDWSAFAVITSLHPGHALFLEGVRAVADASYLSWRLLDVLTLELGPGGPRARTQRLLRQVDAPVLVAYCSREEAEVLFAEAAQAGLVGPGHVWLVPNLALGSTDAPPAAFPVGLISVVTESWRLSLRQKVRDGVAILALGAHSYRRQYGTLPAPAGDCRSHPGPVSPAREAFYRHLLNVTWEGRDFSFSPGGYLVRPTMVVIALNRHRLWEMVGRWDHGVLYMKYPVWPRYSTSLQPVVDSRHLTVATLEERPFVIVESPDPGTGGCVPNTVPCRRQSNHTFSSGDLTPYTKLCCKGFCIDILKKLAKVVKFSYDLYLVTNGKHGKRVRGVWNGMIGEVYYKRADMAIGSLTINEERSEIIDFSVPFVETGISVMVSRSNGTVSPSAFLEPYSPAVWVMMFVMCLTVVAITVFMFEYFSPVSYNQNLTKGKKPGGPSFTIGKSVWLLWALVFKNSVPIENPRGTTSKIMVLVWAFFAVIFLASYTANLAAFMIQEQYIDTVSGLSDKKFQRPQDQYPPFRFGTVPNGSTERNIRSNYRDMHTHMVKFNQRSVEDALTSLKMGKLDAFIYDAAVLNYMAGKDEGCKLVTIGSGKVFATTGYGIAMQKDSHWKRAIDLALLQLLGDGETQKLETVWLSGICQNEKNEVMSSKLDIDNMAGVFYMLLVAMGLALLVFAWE
Chain of GluN1/GluN2AC1/GluN2CC2(NK) (Q00959 23-1464, other chains not shown): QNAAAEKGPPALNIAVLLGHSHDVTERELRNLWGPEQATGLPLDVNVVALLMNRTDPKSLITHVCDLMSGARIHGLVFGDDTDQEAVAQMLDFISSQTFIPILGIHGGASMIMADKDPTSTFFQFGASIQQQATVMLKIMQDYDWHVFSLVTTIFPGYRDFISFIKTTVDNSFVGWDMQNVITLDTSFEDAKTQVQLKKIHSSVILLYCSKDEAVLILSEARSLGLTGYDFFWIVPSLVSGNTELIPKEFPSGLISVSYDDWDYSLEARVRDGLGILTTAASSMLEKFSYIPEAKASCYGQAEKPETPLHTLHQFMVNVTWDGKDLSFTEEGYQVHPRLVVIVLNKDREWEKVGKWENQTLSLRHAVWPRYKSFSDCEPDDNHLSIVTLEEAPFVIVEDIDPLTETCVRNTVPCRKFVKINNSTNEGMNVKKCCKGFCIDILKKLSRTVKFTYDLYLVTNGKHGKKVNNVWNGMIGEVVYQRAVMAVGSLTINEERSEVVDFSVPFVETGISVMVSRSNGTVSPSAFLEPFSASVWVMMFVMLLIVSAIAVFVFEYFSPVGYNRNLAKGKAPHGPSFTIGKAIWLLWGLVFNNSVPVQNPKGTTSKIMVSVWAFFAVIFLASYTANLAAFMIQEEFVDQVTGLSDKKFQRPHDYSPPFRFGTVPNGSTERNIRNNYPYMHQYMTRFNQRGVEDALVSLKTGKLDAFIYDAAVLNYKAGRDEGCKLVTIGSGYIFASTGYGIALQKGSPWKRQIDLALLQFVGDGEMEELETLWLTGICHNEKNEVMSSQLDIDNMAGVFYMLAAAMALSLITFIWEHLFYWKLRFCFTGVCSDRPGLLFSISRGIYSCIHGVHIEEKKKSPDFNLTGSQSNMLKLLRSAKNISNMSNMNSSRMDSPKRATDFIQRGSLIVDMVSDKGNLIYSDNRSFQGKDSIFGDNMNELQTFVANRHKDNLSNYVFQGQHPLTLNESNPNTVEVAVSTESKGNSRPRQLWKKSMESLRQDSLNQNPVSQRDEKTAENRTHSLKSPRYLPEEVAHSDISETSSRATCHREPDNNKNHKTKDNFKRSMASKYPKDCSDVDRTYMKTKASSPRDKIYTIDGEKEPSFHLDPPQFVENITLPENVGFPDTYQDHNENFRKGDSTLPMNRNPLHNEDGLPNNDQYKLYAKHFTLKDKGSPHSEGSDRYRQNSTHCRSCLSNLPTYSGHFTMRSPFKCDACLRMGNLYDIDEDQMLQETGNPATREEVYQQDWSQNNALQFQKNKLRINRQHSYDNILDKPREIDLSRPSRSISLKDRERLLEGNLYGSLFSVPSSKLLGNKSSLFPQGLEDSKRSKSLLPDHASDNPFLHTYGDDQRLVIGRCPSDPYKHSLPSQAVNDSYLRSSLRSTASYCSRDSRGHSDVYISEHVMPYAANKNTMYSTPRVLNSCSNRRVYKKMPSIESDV

In another assay the target is GluN1/GluN2AC1/GluN2AC2 (Rattus norvegicus, UniProt P35439+Q00959). The assay is described as above.
The target in assay [2] is NMDARs in cerebellar granule cells, wild type mice (Mus musculus, UniProt P35436+P35438+Q01098). Type of assay: cell-based.
Chain of NMDARs in cerebellar granule cells, wild type mice (P35436 23-1464, other chains not shown): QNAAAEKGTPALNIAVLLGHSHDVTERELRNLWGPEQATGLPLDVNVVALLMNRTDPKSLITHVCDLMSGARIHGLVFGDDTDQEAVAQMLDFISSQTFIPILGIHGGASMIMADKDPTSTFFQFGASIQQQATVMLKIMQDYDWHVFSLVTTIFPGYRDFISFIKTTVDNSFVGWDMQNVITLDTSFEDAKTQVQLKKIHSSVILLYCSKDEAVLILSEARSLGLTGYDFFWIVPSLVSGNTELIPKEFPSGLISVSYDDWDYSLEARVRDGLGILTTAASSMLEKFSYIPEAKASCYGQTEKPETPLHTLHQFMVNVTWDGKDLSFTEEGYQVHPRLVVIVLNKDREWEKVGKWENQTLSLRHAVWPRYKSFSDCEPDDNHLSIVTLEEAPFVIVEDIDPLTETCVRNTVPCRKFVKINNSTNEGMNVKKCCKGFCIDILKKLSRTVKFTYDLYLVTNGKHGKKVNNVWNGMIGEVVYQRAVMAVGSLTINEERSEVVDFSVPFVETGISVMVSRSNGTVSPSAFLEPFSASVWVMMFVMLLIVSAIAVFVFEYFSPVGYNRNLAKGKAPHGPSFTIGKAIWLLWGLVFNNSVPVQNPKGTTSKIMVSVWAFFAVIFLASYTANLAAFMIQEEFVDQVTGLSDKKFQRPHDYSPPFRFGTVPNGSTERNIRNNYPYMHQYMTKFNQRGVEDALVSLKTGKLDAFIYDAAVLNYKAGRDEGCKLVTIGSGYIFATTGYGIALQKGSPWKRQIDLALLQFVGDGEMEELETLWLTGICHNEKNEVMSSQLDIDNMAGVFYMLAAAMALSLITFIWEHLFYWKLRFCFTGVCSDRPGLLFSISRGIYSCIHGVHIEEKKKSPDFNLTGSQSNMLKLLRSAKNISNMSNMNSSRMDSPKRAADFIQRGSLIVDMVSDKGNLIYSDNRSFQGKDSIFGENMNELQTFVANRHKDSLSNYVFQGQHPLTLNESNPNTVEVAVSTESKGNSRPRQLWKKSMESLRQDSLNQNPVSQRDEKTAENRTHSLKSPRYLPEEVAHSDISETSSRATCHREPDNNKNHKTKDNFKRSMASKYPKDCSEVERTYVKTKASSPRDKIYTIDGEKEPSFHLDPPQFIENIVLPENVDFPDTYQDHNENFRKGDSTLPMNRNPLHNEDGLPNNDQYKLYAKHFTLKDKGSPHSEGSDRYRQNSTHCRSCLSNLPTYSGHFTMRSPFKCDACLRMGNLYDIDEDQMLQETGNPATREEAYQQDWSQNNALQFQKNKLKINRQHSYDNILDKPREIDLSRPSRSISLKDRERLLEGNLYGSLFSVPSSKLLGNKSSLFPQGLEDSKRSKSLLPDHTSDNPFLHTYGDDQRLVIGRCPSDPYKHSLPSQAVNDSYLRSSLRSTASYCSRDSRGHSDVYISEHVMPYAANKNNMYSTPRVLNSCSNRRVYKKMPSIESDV
Chain of NMDARs in cerebellar granule cells, wild type mice (Q01098 20-1239, other chains not shown): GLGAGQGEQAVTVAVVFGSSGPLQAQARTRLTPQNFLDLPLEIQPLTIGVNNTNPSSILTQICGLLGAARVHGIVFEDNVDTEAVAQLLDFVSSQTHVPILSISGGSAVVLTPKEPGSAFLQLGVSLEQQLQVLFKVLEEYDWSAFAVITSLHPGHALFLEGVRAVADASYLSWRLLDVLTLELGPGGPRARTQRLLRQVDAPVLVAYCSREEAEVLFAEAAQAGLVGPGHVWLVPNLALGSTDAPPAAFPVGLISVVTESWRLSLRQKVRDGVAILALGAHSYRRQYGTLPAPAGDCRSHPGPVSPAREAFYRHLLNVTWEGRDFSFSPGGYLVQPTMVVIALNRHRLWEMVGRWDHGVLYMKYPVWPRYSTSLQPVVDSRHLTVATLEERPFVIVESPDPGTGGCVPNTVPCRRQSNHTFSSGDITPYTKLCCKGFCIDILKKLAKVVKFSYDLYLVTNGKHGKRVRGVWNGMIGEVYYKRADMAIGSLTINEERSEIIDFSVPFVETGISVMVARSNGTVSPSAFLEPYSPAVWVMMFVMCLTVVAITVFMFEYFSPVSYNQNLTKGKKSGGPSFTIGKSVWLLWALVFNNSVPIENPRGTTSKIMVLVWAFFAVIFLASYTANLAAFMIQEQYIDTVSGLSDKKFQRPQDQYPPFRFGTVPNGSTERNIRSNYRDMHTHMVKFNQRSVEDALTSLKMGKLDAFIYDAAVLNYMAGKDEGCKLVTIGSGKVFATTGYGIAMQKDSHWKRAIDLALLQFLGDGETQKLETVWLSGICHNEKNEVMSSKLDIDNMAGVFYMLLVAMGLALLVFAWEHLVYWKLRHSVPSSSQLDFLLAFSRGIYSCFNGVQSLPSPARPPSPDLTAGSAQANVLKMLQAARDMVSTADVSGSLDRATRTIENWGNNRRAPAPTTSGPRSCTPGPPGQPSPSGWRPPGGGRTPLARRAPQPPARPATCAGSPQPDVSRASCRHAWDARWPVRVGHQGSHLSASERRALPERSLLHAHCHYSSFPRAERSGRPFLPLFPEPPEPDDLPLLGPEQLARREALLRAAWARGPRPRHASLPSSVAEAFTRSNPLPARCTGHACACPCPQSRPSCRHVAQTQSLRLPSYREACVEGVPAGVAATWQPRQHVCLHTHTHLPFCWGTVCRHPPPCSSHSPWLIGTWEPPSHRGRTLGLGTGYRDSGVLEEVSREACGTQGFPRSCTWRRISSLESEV
The test system of assay [3] is NMDARs in cultured cortical neurons transfected with GFP alone (control). It is filed as cell-based, rat.
Assay [4] deals with NMDARs in cultured cortical neurons transfected with GluN2C and GFP. It is filed as cell-based, rat.
Assay [5] has as its system NMDARs in cultured cortical neurons. It is filed as cell-based, rat. Conditions: 400 μM DL-APV.
Assay [6] concerns the target NMDARs in cultured cortical neurons (Rattus norvegicus, UniProt P35439+Q00960). It is filed as cell-based. Conditions: spermine potentiation of native GluN2B-mediated current responses, n=3.
For assay [7], the target named is NMDARs in cerebellar granule cells, Grin2A−/− mice (Mus musculus, UniProt P35438+Q01098). It is filed as cell-based. Conditions: 50 μM PYD-106, Grin2A−/− slices, n=8 animals.
Chain of NMDARs in cerebellar granule cells, Grin2A−/− mice (Q01098 20-1239, other chains not shown): as above
The target of assay [8] is NMDARs in cerebellar granule cells, Grin2C−/− mice (Mus musculus, UniProt P35436+P35438). Type of assay: cell-based. The settings on record: 50 μM PYD-106, Grin2C−/− slices, n=8 animals.
Assay [9] relates to GluN1/GluN2B/GluN2C receptors. In words: Two-electrode voltage-clamp recordings in Xenopus oocytes. The settings on record: Figure S1. Type of assay: cell-based, rat.
The target of a further assay is GluN1/GluN2A (Rattus norvegicus, UniProt P35439+Q00959). The settings on record: 5 ms pulse of 1 mM glutamate, continuous 100 μM glycine, n=6.
In another assay the target is GluN1/GluN2C (Rattus norvegicus, UniProt P35439+Q00961). Conditions: 5 ms pulse of 1 mM glutamate, continuous 100 μM glycine, n=8.

For the molecule `[Zn+2]` [Zn^2+], the “GluN2AC1/GluN2CC2(NK) fitted response in saturating Zn2+ as percent of control” value in [1] (pH 6.8, 0.1 mM Mg2+) is on record as 27±1.6 ^c %; in [1] (pH 7.3, 0.1 mM Mg2+), 57±0.4 ^c %. Further, the IC50 in assay [1] (pH 6.8, 0.1 mM Mg2+) was 0.019 µM; in assay [1] (pH 7.3, 0.1 mM Mg2+) it was 0.045 µM. The “GluN2AC1/GluN2AC2 fitted response in saturating Zn2+ as percent of control” value on GluN1/GluN2AC1/GluN2AC2 (pH 6.8, mean ± SEM) is recorded as 21±1.7 ^c %; at GluN1/GluN2AC1/GluN2AC2 (pH 7.3, mean ± SEM), 57±2.0 ^c %.

As to `COc1ccc(OCC2c3cc(OC)c(OC)cc3CCN2C(=O)c2cccc(Cl)c2)cc1` (stereo not shown) [CIQ], the “granule cell response to pressure-applied NMDA, % of DCS” value in assay [2] (20 μM CIQ, 30 μM DCS, wild type mice, n=6 animals) is listed as 141±6.7%. For the same molecule, the “NMDAR-mediated current, % of baseline” value in assay [3] (20 μM CIQ, control (GFP) cortical neurons, n=4) came to 96±4.6%. Besides, the “NMDAR-mediated current, % of control” value in assay [4] (20 μM CIQ, GluN2C-transfected neurons, n=5) is 145±9.4%. In assay [4] (CIQ, 3 μM ifenprodil, GluN2C-transfected neurons, n=4), the “NMDAR current response in the presence of ifenprodil, % of baseline” value was found to be 131±5%.

For the molecule `NC(CCCP(=O)(O)O)C(=O)O` (racemic) [DL-APV, D,L-2-amino-5-phosphonovalerate], in assay [5], the “current response, % of control” value was found to be 3.4±0.7%.

For `NCCCNCCCCNCCCN` [Spermine], the “NMDAR current, % of baseline responses” value in assay [6] is given as 142±7.2%.

Consider `COC(=O)c1ccc(C2C(C(C)=O)=C(O)C(=O)N2CCc2c(C)[nH]c3ccccc23)cc1` (stereo not shown) [PYD-106], for which, in assay [2] (50 μM PYD-106, continuous 30 μM DCS, wild type mice, n=8 animals), the “granule cell response to pressure-applied NMDA, % of DCS alone” value is 84±3.8%. In addition, the “effect on NMDA responses with glycine as the co-agonist” value in assay [2] (wild type granule cells, n=3 animals, data not shown) was “no effect”. Besides, the “granule cell response to pressure-applied NMDA and glycine, % of control” value in assay [7] was 164±17%. For the same molecule, the “granule cell response, % of control” value in assay [8] was found to be 90±7%. The “NMDAR current response, % of control” value in assay [3] (50 μM PYD-106, GFP control neurons, n=5) is listed as 83±0.6%; in assay [4] (50 μM PYD-106, GluN2C-transfected neurons, n=5) it was 89±1.6%. Besides, the “NMDAR current response in the presence of ifenprodil, % of baseline” value in [4] (50 μM PYD-106, 3 μM ifenprodil, GluN2C-transfected neurons, n=5) was 72±6%. Further, in assay [9], the “sensitivity to PYD-106” value is reported as “insensitive”.

Consider `N[C@@H](CCC(=O)O)C(=O)O` [Glutamate], for which the entries for the “time constant for glutamate deactivation (τ)” value at GluN1/GluN2A and at GluN1/GluN2C were 81 ± 8 ms and 477 ± 40 ms, respectively.
